Experimental data reported in patent US8450293B2, “Synthesis and characterization of C8 analogs of c-di-GMP” (Rutgers, The State University of New Jersey, priority 2010, dated 2013).

Columns and labels:
[1] = NMR / 2D DOSY study of metal-dependent complex formation; format: physicochemical; conditions: NMR concentrations (26-31 mM)
From the text: Three larger and three smaller resonances clustered near 6 ppm, from the H1′ were observed. Diffusion coefficients (D, m^2/s×10^−1), obtained from a separate 2D DOSY experiment on the same sample, are indicated in parentheses. […] (Zhang et al., J. Am. Chem. Soc. 2006, 128, 7015-7024; Zhao et al., Nucleosides Nucleotides Nucl. Acids 2009, 28, 352-378) Here, all three larger resonances have D=1.5, indicative of octamolecular complexes. The two farthest downfield of the three smaller resonances have D=1.7, indicative of tetramolecular complexes (the octamolecular having been already identified), and the remaining farthest upfield smaller resonance has D=3.5, indicative of a bimolecular structure. At 5° C., all three smaller resonances nearly disappear, leaving primarily the three larger ones. The octamolecular complexes are expected to be preferentially stabilized at lower temperatures. At 55° C., the three larger resonances all decrease, and only the farthest upfield of the smaller resonances increases, confirming it is the bimolecular structure. The higher order complexes are disrupted at higher temperatures, leaving the bimolecular structure dominant.
All NMR spectra were acquired on a Varian VNMRS 500 MHz spectrometer. Samples were 31 mM of 2, 27 mM of 3, 26 mM of […] of 5, and 26 mM of 6, each in 0.30 mL H2O containing 10% D2O. The pH of all samples was adjusted to 6.8, using either HCl or KOH/NaOH/LiOH, as appropriate. Each sample was heated to 75° C. for 10 minutes, then allowed to cool to room temperature before being transferred to the NMR tube. The ^1H and ^13C NMR spectra were referenced to sodium trimethylsilylpropylsulfonate in D2O, and the ^31P NMR spectra were referenced to 10% phosphoric acid in D2O. The 1D ^1H NMR spectra used frequency pre-saturation for water suppression. The DOSY spectra used a pre-saturation pulse for water suppression. The data were collected using a 2.5 second relaxation delay over an 8000 Hz spectral width, with 16 repetitions over 256 increments and a diffusion delay of 0.1 seconds. For the HMBC experiments, the ^1H spectra were acquired with 16 scans, with acquisition time and relaxation delay of 2 s and 1.5 s, respectively. To suppress water, ^1H pre-saturation was applied during the relaxation delay. The ^13C spectra were acquired with 1024 scans, with acquisition time and relaxation delay of 0.5 s and 1 s, respectively. For NOE enhancement and ^1H decoupling, ^1H WALTZ16 decoupling was applied during the entire experiment. ^1H-^13C HMBC 2D spectra were acquired using 2048 (t2) times 100 (t1) complex points with spectral widths of 8000 Hz (t2) and 10000 Hz (t1) and transformed to spectra with 2048 (D1) times 1024 (D2) real points after two times linear prediction in t1. The number of scans per each t1 increment was 128 and the relaxation delay for each scan was 1.5 s. To suppress water, ^1H pre-saturation was applied during the relaxation delay. The DEPT transfer delay for HMBC was chosen as ^2,3JHC=20 Hz (the multi-bond coupling constant) and ^1JHC (the one-bond coupling constant) was set as 140 Hz to suppress cross peaks contributed from the one-bond ^1H-^13C connectivity.

[2] = Solubility in water (noted when preparing NMR samples); format: physicochemical; conditions: K+ salt sample for NMR; spectra obtained in 1:1 CH3OD:H2O instead
Procedure: Portions of the ^1H NMR spectra of the K^+ salts of 4, 5, and 6 at 25° C. are shown in FIGS. 5B, 5C, and 5D, respectively. […] For 4, 5, and 6, the H1′/amino resonances display nearly identical diffusion constants of 3.7/3.5, 2.4/2.5, and 1.9/2.0, respectively. These resonances become larger at 5° C. and disappear completely at 55° C. In all three cases, ^1H spectra of the Na^+ salts closely resemble those of the K^+ salts.

[3] = similar concentrations; Zhang et al. 2004; cited from earlier work

Row | Structure (SMILES) | complex formed (self-association) ([1]; K+ salt) | complex formed (self-association) ([1]; Na+ salt) | solubility in water [2] | hypochromic effect in UV melt [3]
1 | CC(=O)c1cccc(-c2nc3c(=O)[nH]c(N)nc3n2[C@@H]2O[C@@H]3COP(=O)(O)OC4C(O)[C@H](n5c(-c6cccc(C(C)=O)c6)nc6c(=O)[nH]c(N)nc65)O[C@@H]4COP(=O)(O)OC3C2O)c1 (stereo partly shown) [compound 6, cyclo-8-(3-acetylphenyl)-guanosinylyl(3′→5′)-8′-(3-acetylphenyl)-guanosinylyl(3′→5′)] | primarily a syn bimolecular structure | primarily a syn bimolecular structure | not soluble in water | –
2 | Nc1nc2c(nc(-c3ccccc3)n2[C@@H]2O[C@@H]3COP(=O)(O)OC4C(O)[C@H](n5c(-c6ccccc6)nc6c(=O)[nH]c(N)nc65)O[C@@H]4COP(=O)(O)OC3C2O)c(=O)[nH]1 (stereo partly shown) [compound 5, cyclo-8-phenylguanosinylyl (3′→5′)-8′-phenylguanosinylyl (3′→5′)] | primarily a syn bimolecular structure | primarily a syn bimolecular structure | – | –
3 | Nc1nc2c(ncn2[C@@H]2O[C@@H]3COP(=O)(O)OC4[C@@H](COP(=O)(O)O[C@@H]3C2O)O[C@@H](n2cnc3c(=O)[nH]c(N)nc32)[C@H]4O)c(=O)[nH]1 (stereo partly shown) [compound 1, cyclic diguanosine monophosphate] | – | – | – | pronounced hypochromism

Continued, in another order:

Row | complex formed (self-association) ([1]; K+ salt) | complex formed (self-association) ([1]; Na+ salt) | solubility in water [2] | Structure (SMILES) | hypochromic effect in UV melt [3]
4 | primarily a syn bimolecular structure | primarily a syn bimolecular structure | – | CSc1nc2c(=O)[nH]c(N)nc2n1[C@@H]1O[C@@H]2COP(=O)(O)OC3C(O)[C@H](n4c(SC)nc5c(=O)[nH]c(N)nc54)O[C@@H]3COP(=O)(O)OC2C1O (stereo partly shown) [compound 4, cyclo-8-methylthioguanosinylyl (3′→5′)-8′-methylthioguanosinylyl (3′→5′)] | –
5 | primarily a syn bimolecular structure | primarily a syn bimolecular structure | – | Nc1nc2c(nc(S)n2[C@@H]2O[C@@H]3COP(=O)(O)OC4C(O)[C@H](n5c(=S)[nH]c6c(=O)[nH]c(N)nc65)O[C@@H]4COP(=O)(O)OC3C2O)c(=O)[nH]1 (stereo partly shown) [compound 3, cyclo-8-thioguanosinylyl (3′→5′)-8′-thioguanosinylyl (3′→5′)] | –
